A short description of the series: Henry solubility constant Hcp at 298.15 K (mol/(m3 Pa)). To be noted: reference: Diaz et al. (2005).
`COc1c(Cl)ccc(Cl)c1Cl` [1,2,4-trichloro-3-methoxybenzene]: the “Henry solubility constant Hcp” value amounted to 0.011.

For `COc1c(Br)ccc(Br)c1Br` [1,3,4-tribromo-2-methoxybenzene], the “Henry solubility constant Hcp” value came out at 0.0052.

Consider `COc1c(Br)cc(Br)cc1Br` [1,3,5-tribromo-2-methoxybenzene], for which the “Henry solubility constant Hcp” value was 0.019.

`COc1c(Cl)cc(Cl)cc1Cl` [1,3,5-trichloro-2-methoxybenzene]: the “Henry solubility constant Hcp” value is 0.0044.

`COc1c(Br)ccc(Cl)c1Br` [2,6-dibromo-3-chloro-1-methoxybenzene]: the “Henry solubility constant Hcp” value worked out at 0.0074.

Take `COc1c(Br)cc(Cl)cc1Br` [2,6-dibromo-4-chloro-1-methoxybenzene]: the “Henry solubility constant Hcp” value was 0.02.

For `COc1c(Cl)cc(Cl)cc1Br` [2-bromo-4,6-dichloro-1-methoxybenzene], the “Henry solubility constant Hcp” value turned out to be 0.0082.

Consider `COc1c(Cl)ccc(Br)c1Cl` [3-bromo-2,6-dichloro-1-methoxybenzene], for which the “Henry solubility constant Hcp” value turned out to be 0.011.

`COc1c(Cl)cc(Br)cc1Cl` [4-bromo-2,6-dichloro-1-methoxybenzene]: the “Henry solubility constant Hcp” value came to 0.012.

Turning to `COc1c(Cl)ccc(Cl)c1Br` [6-bromo-2,5-dichloro-1-methoxybenzene], the “Henry solubility constant Hcp” value turned out to be 0.0077.

The record behind these values is Sander's compilation of Henry's law constants (doi:10.1016/j.chroma.2004.12.027).
